For assay [1], the system named is Phosphorylation of ERK1/2 in MIA PaCa-2 cells. Kind of assay: Phospho-ERK1/2 MSD Assay, MIA PaCa-2 (Table 16 conditions: 2 hours compound treatment). The settings on record: 10 ng/mL EGF for 10 min, read-out: p-ERK IC50 (MIA PaCa-2). The format is cell-based. As to the method:
(§1) For compounds in Table 16, the following assay conditions were employed:
Sixteen hours prior to compound treatment, MIA PaCa-2 or A549 cells were seeded in 96-well cell culture plates at a density of 25,000 cells/well and incubated at 37° C., 5% CO2. A compound dose-response titration was diluted in growth media, added to appropriate wells of a cell culture plate, and then incubated at 37° C., 5% CO2 for 2 hours. […] Phosphorylation of ERK1/2 in compound-treated lysates was assayed using Phospho-ERK1/2 Whole Cell Lysate kits (Meso Scale Discovery K151DWD) according to the manufacturer's protocol. Assay plates were read on a Meso Scale Discovery Sector Imager 6000, and data were analyzed using a 4-parameter logistic model to calculate IC50 values.

Assay [2] has as its target GDP-bound KRAS protein (aa 1-169), containing both G12C and C118A amino acid substitutions (Homo sapiens, UniProt P01116, C118A/G12C). Kind of assay: Coupled Nucleotide Exchange Assay (Table 16 conditions: 5 min pre-incubation). The class given is biochemical. As to conditions: 5 min compound pre-incubation; SOS-mediated nucleotide exchange, AlphaScreen. The method, then: as §1
The assay plates were then read on a PerkinElmer EnVision Multilabel Reader, using AlphaScreen® technology, and data were analyzed using a 4-parameter logistic model to calculate IC50 values.

The mark [3] stands for this setting: Homo sapiens, MIA PaCa-2, MIA PaCa-2 cells.

Where two headings read alike, the source gives them in different places.

As usually defined, the IC50 is the concentration needed to halve the response being measured.

GDP-bound KRAS protein (aa 1-169), containing both G12C and C118A amino acid substitutions, sequence (P01116 1-169 isoform P01116-2 G12C/C118A): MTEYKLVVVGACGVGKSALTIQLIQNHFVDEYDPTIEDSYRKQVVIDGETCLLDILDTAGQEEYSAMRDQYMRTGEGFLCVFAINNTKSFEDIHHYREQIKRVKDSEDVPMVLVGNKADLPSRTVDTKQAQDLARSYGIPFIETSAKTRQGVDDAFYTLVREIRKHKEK

For `C=CC(=O)N1CCN(c2nc(=O)n(-c3ccccc3C(C)(C)C)c3nc(-c4c(O)cccc4F)c(Cl)cc23)[C@@H](C)C1` [Example 49, 6-Chloro-7-(2-fluoro-6-hydroxyphenyl)-1-(2-(2-methyl-2-propanyl)phenyl)-4-((2S)-2-methyl-4-(2-propenoyl)-1-piperazinyl)pyrido[2,3-d]pyrimidin-2(1H)-one], the results for the IC50 in assay [1] (MIA PaCa-2 cells) and in assay [2] were 154 nM and 177 nM, respectively.

Consider `C=CC(=O)N1CCN(c2nc(=O)n(-c3c(C)cnn3C(C)C)c3nc(-c4ccccc4F)c(Cl)cc23)[C@@H](C)C1` (single isomer, unassigned) [Example 53-1], for which the IC50 in assay [1] (MIA PaCa-2 cells) turned out to be 93 nM; in assay [2] it was 98 nM.

For `C=CC(=O)N1CCN(c2nc(=O)n(-c3c(C)cccc3C(C)C)c3nc(-c4c(O)cccc4F)c(Cl)cc23)[C@@H](C)C1` [Example 39-1, 6-chloro-7-(2-fluoro-6-hydroxyphenyl)-1-(2-methyl-6-(2-propanyl)phenyl)-4-((2S)-2-methyl-4-(2-propenoyl)-1-piperazinyl)pyrido-[2,3-d]pyrimidin-2(1H)-one], the IC50 in assay [1] (MIA PaCa-2 cells) amounted to 28 nM; in assay [2], 25 nM.

With `C=CC(=O)N1CCN(c2nc(=O)n(-c3c(C)ccnc3C3CC3)c3nc(-c4c(O)cccc4F)c(Cl)cc23)[C@@H](C)C1` [Example 44-1], the IC50 in assay [1] (MIA PaCa-2 cells) is 25 nM; in assay [2], 33 nM.

Consider `C=CC(=O)N1CCN(c2nc(=O)n(-c3c(C)ccnc3C3CC3)c3nc(-c4ccccc4F)c(Cl)cc23)[C@@H](C)C1` (single isomer, unassigned) [Example 45-1], for which the values for the IC50 in assay [1] (MIA PaCa-2 cells) and in assay [2] were 49 nM and 89 nM, respectively.

Turning to `C=CC(=O)N1CCN(c2nc(=O)n(-c3c(C)ccnc3CC)c3nc(-c4ccccc4F)c(Cl)cc23)[C@@H](C)C1` [Example 46, 6-Chloro-1-(2-ethyl-4-methyl-3-pyridinyl)-7-(2-fluorophenyl)-4-((2S)-2-methyl-4-(2-propenoyl)-1-piperazinyl)pyrido[2,3-d]pyrimidin-2(1H)-one], the figures for the IC50 in assay [1] (MIA PaCa-2 cells) and in assay [2] were 169 nM and 493 nM, respectively.

For the molecule `C=CC(=O)N1CCN(c2nc(=O)n(-c3c(C)ccnc3C3CC3)c3nc(-c4c(O)cccc4F)c(F)cc23)[C@@H](C)C1` [Example 42-1, 1-(2-cyclopropyl-4-methyl-3-pyridinyl)-6-fluoro-7-(2-fluoro-6-hydroxyphenyl)-4-((2S)-2-methyl-4-(2-propenoyl)-1-piperazinyl)pyrido-[2,3-d]pyrimidin-2(1H)-one], the values for the half-inhibitory concentration (IC50) in assay [1] (MIA PaCa-2 cells) and in assay [2] were 103 nM and 150 nM, respectively.

Turning to `C=CC(=O)N1CCN(c2nc(=O)n(-c3c(C)ccnc3C(C)C)c3nc(-c4ccccc4F)c(Cl)cc23)[C@@H](C)C1` [Example 40-1, 6-chloro-7-(2-fluoro-phenyl)-1-(4-methyl-2-(2-propanyl)-3-pyridinyl)-4-((2S)-2-methyl-4-(2-propenoyl)-1-piperazinyl)pyrido-[2,3-d]pyrimidin-2(1H)-one], the IC50 came out at 22 nM in assay [1] (MIA PaCa-2 cells) and 57 nM in assay [2].

On to `C=CC(=O)N1CCN(c2nc(=O)n(-c3c(C)cnn3C(C)C)c3nc(-c4ccccc4F)c(Cl)cc23)[C@@H](C)C1` (single isomer, unassigned) [Example 53-2], for which the IC50 in assay [1] (MIA PaCa-2 cells) came out at 229 nM; in assay [2], 320 nM.

In the case of `C=CC(=O)N1CCN(c2nc(=O)n(-c3ccccc3C(C)C)c3nc(-c4ccccc4F)c(C)nc23)[C@@H](C)C1` [Example 51, 7-(2-Fluorophenyl)-6-methyl-4-((2A)-2-methyl-4-(2-propenoyl)-1-piperazinyl)-1-(2-(2-propanyl)phenyl)-2(1H)-pteridinone], the IC50 in assay [1] (MIA PaCa-2 cells) was found to be 440 nM; in assay [2], 538 nM.

Regarding `C=CC(=O)N1CCN(c2nc(=O)n(-c3c(C)ccnc3C3CC3)c3nc(-c4ccccc4F)c(Cl)cc23)[C@@H](C)C1` (single isomer, unassigned) [Example 45-2], the IC50 was determined as 435 nM in assay [1] (MIA PaCa-2 cells) and 727 nM in assay [2].

For the molecule `C=CC(=O)N1CCN(c2nc(=O)n(-c3c(C)ccnc3CC)c3nc(-c4ccccc4F)c(Cl)cc23)[C@@H](C)C1` [Example 46-1, 6-chloro-1-(2-ethyl-4-methyl-3-pyridinyl)-7-(2-fluorophenyl)-4-((2S)-2-methyl-4-(2-propenoyl)-1-piperazinyl)pyrido-[2,3-d]pyrimidin-2(1H)-one], the IC50 in assay [1] (MIA PaCa-2 cells) was determined as 126 nM; in assay [2], 170 nM.

Take `C=CC(=O)N1CCN(c2nc(=O)n(-c3c(C)cccc3C(C)C)c3nc(-c4c(O)cccc4F)c(Cl)cc23)[C@@H](C)C1` [Example 39-2, 6-chloro-7-(2-fluoro-6-hydroxyphenyl)-1-(2-methyl-6-(2-propanyl)phenyl)-4-((2S)-2-methyl-4-(2-propenoyl)-1-piperazinyl)pyrido-[2,3-d]pyrimidin-2(1H)-one]: the IC50 is 195 nM in assay [1] (MIA PaCa-2 cells) and 222 nM in assay [2].

Consider `C=CC(=O)N1CCN(c2nc(=O)n(-c3c(C)ccnc3C3CC3)c3nc(-c4c(O)cccc4F)c(Cl)cc23)[C@@H](C)C1` [Example 44], for which the values for the IC50 in assay [1] (MIA PaCa-2 cells) and in assay [2] were 65 nM and 103 nM, respectively.

In the case of `C=CC(=O)N1CCN(c2nc(=O)n(-c3c(CC)ncnc3CC)c3nc(-c4ccccc4F)c(Cl)cc23)[C@@H](C)C1` [Example 47, 6-Chloro-1-(4,6-diethyl-5-pyrimidinyl)-7-(2-fluorophenyl)-4-((2S)-2-methyl-4-(2-propenoyl)-1-piperazinyl)pyrido[2,3-d]pyrimidin-2(1H)-one], the concentration for half-maximal inhibition (IC50) in assay [1] (setting [3]) was determined as 152 nM; in assay [2], 409 nM.

`C=CC(=O)N1CCN(c2nc(=O)n(-c3c(C(C)C)ncnc3C(C)C)c3nc(-c4ccccc4F)c(Cl)cc23)[C@@H](C)C1` [Example 43, 6-Chloro-1-(4,6-di(2-propanyl)-5-pyrimidinyl)-7-(2-fluorophenyl)-4-((2S)-2-methyl-4-(2-propenoyl)-1-piperazinyl)pyrido[2,3-d]pyrimidin-2(1H)-one]: the IC50 in assay [1] (setting [3]) came out at 34 nM; in assay [2], 38 nM.

Turning to `C=CC(=O)N1CCN(c2nc(=O)n(-c3c(C)ccnc3CC)c3nc(-c4ccccc4F)c(Cl)cc23)[C@@H](C)C1` [Example 46-2, 6-chloro-1-(2-ethyl-4-methyl-3-pyridinyl)-7-(2-fluorophenyl)-4-((2S)-2-methyl-4-(2-propenoyl)-1-piperazinyl)pyrido-[2,3-d]pyrimidin-2(1H)-one], the 50% inhibitory concentration (IC50) in assay [1] (MIA PaCa-2 cells) came to 552 nM; in assay [2] it was 971 nM.

Regarding `C=CC(=O)N1CCN(c2nc(=O)n(-c3c(C)ccnc3C(C)C)c3nc(-c4ccccc4F)c(Cl)cc23)[C@@H](C)C1` [Example 40, 6-Chloro-7-(2-fluorophenyl)-1-(4-methyl-2-(2-propanyl)-3-pyridinyl)-4-((2S)-2-methyl-4-(2-propenoyl)-1-piperazinyl)pyrido[2,3-d]pyrimidin-2(1H)-one], the IC50 in assay [1] (MIA PaCa-2 cells) was determined as 29 nM; in assay [2], 63 nM.

For the molecule `C=CC(=O)N1CCN(c2nc(=O)n(-c3c(C)ccnc3C3CC3)c3nc(-c4c(O)cccc4F)c(Cl)cc23)[C@@H](C)C1` [Example 44-2], the figures for the IC50 in assay [1] (MIA PaCa-2 cells) and in assay [2] were 138 nM and 208 nM, respectively.

With `C=CC(=O)N1CCN(c2nc(=O)n(-c3ccccc3C(C)(C)C)c3nc(-c4c(O)cccc4F)c(Cl)cc23)[C@@H](C)C1` (single isomer, unassigned) [Example 49-2], the 50% inhibitory concentration (IC50) in assay [1] (MIA PaCa-2 cells) was 51 nM; in assay [2], 117 nM.

The record behind these values is patent US11905281B2 (Amgen Inc., priority 2017, dated 2024).
